# Results from patent US11802120B2, “Fused cyclic urea derivatives as CRHR2 antagonist” (RaQualia Pharma Inc., priority 2018, dated 2023).
# Molecular target: T1, human CRHR2-alpha (Homo sapiens, UniProt Q13324)
# T1 sequence (Q13324 1-411): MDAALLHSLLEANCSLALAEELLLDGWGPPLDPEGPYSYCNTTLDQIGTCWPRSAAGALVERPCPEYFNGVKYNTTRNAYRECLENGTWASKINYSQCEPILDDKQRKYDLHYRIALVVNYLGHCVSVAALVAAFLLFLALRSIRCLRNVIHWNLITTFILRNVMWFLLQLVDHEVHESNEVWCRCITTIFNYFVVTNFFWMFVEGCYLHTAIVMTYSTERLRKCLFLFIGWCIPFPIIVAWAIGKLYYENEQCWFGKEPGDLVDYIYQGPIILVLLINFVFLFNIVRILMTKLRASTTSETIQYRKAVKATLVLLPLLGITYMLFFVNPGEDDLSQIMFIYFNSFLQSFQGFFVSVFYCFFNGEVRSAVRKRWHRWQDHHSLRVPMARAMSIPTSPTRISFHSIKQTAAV
# Assay: cAMP functional assay for human CRHR2 (LANCE Ultra cAMP, TR-FRET)
# Format: cell-based
# Details: CHO-K1 cells expressing human CRHR2-alpha, agonist human urocortin2 at EC80, cAMP; read-out: IC50 against CRHR2
# Outline: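 First, starved and frozen CHO-K1 cells expressing the receptor are thawed into IBMX-containing HBSS buffer (pH 7.4). Next, compounds are added for 30 min at 25° C. Then agonist at EC80 (urocortin2 or CRF, per receptor) is added for another 30 min, followed by cAMP detection reagents.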
row,IC50,Compound
1,< 300 nM,"O=C(N[C@H]1CC[C@H](Cn2c(=O)n(-c3ccc(-n4ccnc4)cc3)c3ccccc32)CC1)c1cc(Cl)cnc1C(F)F [Example 569, N-((1r,4r)-4-((3-(4-(1H-imidazol-1-yl)phenyl)-2-oxo-2,3-dihydro-1H-benzo[d]imidazol-1-yl)methyl)cyclo-hexyl)-5-chloro-2-(difluoro-methyl)nicotinamide]"
2,< 300 nM,"CCNC(=O)c1ccc(-n2c(=O)n(C[C@H]3CC[C@H](NC(=O)c4cc(Cl)cnc4C(F)F)CC3)c3ccccc32)cn1 [Example 551, 5-(3-(((1r,4r)-4-(5-chloro-2-(difluoromethyl)nicotina-mido)cyclohexyl)methyl)-2-oxo-2,3-dihydro-1H-benzo [d]imidazol-1-yl)-N-ethylpicolinamide]"
3,< 300 nM,"CC(F)(F)CNc1ccc(-n2c(=O)n(C[C@H]3CC[C@H](NC(=O)c4cc(Cl)cnc4C(F)F)CC3)c3ccccc32)cn1 [Example 515, 5-chloro-2-(difluoromethyl)-N-((1r,4r)-4-((3-(6-((2,2-difluoropropyl)amino)pyridin-3-yl)-2-oxo-2,3-dihydro-1H-benzo[d]imidazol-1-yl)methyl)cyclohexyl)nicotinamide]"
4,< 300 nM,"O=C(N[C@H]1CC[C@H](Cn2c(=O)n(-c3cccc(N4CCCC4=O)n3)c3ccccc32)CC1)c1cc(Cl)cnc1C(F)F [Example 776, 5-chloro-2-(difluoromethyl)-N-((1r,4r)-4-((2-oxo-3-(6-(2-oxo-pyrrolidin-1-yl)pyridin-2-yl)-2,3-dihydro-1H-benzo[d]imidazol-1-yl)methyl)cyclo-hexyl)nicotinamide]"
5,< 300 nM,"O=C(N[C@H]1CC[C@H](Cn2c(=O)n(-c3ccncc3Cl)c3ccccc32)CC1)c1cc(Cl)cnc1C(F)(F)F [Example 334, 5-chloro-N-((1r,4r)-4-((3-(3-chloropyridin-4-yl)-2-oxo-2,3-dihydro-1H-benzo[d]imidazol-1-yl)methyl)cyclo-hexyl)-2-(trifluoromethyl) nicotinamide]"

# Second part, the molecule before the results:
row,Compound,IC50
1,"CNC(=O)c1ccc(-n2c(=O)n(C[C@H]3CC[C@H](NC(=O)c4cc(Cl)cnc4CCOC)CC3)c3ccccc32)cn1 [Example 321, 5-(3-(((1r,4r)-4-(5-chloro-2-(2-methoxyethyl)nico-tinamido)cyclohexyl)methyl)-2-oxo-2,3-dihydro-1H-benzo [d]imidazol-1-yl)-N-methylpicolinamide]",< 300 nM
2,"Cc1ncc(Cl)cc1C(=O)N[C@H]1CC[C@H](Cn2c(=O)n(CC(=O)c3ccc(F)cc3F)c3ccccc32)CC1 [Example 12, 5-chloro-N-((1r,4r)-4-((3-(2-(2,4-difluorophenyl)-2-oxoethyl)-2-oxo-2,3-dihydro-1H-benzo[d]imidazol-1-yl)methyl)cyclohexyl)-2-methylnicotinamide]",< 300 nM
3,"Cc1ccc(-n2c(=O)n(C[C@H]3CC[C@H](NC(=O)c4cc(Cl)ccc4C4CC4)CC3)c3ccccc32)cn1 [Example 266, 5-chloro-2-cyclopropyl-N-((1r,4r)-4-((3-(6-methyl-pyridin-3-yl)-2-oxo-2,3-dihydro-1H-benzo[d]imidazol-1-yl)methyl)cyclo-hexyl)benzamide]",< 300 nM
4,"Cc1ncc(Cl)cc1C(=O)N[C@H]1CC[C@H](Cn2c(=O)n(-c3cnccc3C#N)c3ccccc32)CC1 [Example 248, 5-chloro-N-((1r,4r)-4-((3-(4-cyanopyridin-3-yl)-2-oxo-2,3-dihydro-1H-benzo[d]imidazol-1-yl)methyl)cyclohexyl)-2-methylnicotinamide]",< 300 nM
5,"Cc1ncc(Cl)cc1C(=O)N[C@H]1CC[C@H](Cn2c(=O)n(-c3cnc4c(c3)OCCN4)c3ccccc32)CC1 [Example 159, 5-chloro-N-((1r,4r)-4-((3-(3,4-dihydro-2H-pyrido[3,2-b][1,4]oxazin-7-yl)-2-oxo-2,3-dihydro-1H-benzo[d]imidazol-1-yl)methyl)cyclohexyl)-2-methylnicotinamide]",< 300 nM
